Among the targets are Mu-type opioid receptor (Homo sapiens, UniProt P35372); D(2) dopamine receptor (Homo sapiens, UniProt P14416); D(1A) dopamine receptor (Homo sapiens, UniProt P21728).
Assay [1] deals with T1, 5-hydroxytryptamine receptor 3A (Homo sapiens, UniProt P46098).
T1 sequence (P46098 whole entry): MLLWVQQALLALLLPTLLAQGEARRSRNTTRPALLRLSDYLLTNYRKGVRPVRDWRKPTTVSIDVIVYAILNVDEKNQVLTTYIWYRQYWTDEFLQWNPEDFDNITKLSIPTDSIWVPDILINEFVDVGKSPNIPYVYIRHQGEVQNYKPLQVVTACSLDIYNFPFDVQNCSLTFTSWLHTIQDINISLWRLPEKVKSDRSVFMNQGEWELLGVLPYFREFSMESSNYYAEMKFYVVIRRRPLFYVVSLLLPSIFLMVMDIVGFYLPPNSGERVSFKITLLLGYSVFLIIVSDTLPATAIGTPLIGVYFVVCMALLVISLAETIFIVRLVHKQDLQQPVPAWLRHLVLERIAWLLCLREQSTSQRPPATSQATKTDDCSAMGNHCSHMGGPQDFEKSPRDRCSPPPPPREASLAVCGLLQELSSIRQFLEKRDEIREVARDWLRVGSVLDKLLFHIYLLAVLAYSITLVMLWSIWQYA

In assay [2] the target is Muscarinic acetylcholine receptor M3 (Homo sapiens, UniProt P20309).
Assay [3] addresses 5-hydroxytryptamine receptor 5A (Homo sapiens, UniProt P47898).
Assay [4] has as its target T2, 5-hydroxytryptamine receptor 2C (Rattus norvegicus, UniProt P08909).
T2 sequence (P08909 whole entry): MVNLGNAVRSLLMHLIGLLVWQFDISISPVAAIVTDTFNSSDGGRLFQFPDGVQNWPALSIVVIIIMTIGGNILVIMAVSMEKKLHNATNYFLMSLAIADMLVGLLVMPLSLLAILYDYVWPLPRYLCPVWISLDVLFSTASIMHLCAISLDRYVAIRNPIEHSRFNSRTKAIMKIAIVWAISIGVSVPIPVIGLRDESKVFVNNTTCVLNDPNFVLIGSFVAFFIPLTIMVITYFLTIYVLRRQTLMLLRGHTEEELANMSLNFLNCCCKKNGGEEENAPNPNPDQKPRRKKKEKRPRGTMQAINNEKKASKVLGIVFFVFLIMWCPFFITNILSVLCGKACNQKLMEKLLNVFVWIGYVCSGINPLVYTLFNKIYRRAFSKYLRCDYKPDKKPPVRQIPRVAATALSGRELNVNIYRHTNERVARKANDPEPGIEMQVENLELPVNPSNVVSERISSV

Assay [5] concerns the target T3, Alpha-2C adrenergic receptor (Homo sapiens, UniProt P18825).
T3 sequence (P18825 whole entry): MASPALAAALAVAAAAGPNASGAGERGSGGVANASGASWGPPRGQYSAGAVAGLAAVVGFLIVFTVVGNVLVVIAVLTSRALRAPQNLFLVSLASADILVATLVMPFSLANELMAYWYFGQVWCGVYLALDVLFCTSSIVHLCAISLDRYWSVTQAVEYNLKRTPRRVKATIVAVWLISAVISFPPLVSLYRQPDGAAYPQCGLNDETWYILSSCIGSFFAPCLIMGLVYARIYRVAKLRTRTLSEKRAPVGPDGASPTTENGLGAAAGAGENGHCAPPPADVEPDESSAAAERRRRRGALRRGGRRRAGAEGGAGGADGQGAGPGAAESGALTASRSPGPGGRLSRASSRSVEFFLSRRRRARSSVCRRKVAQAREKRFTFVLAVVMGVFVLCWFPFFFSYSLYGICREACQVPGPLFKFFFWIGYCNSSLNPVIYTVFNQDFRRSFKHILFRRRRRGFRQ

For assay [6], the target named is Gamma-aminobutyric acid receptor subunit alpha-1 (Rattus norvegicus, UniProt P62813).
The target of assay [7] is Glutamate receptor ionotropic, NMDA 1 (Rattus norvegicus, UniProt P35439).
The target of assay [8] is T4, Muscarinic acetylcholine receptor M5 (Homo sapiens, UniProt P08912).
T4 sequence (P08912 whole entry): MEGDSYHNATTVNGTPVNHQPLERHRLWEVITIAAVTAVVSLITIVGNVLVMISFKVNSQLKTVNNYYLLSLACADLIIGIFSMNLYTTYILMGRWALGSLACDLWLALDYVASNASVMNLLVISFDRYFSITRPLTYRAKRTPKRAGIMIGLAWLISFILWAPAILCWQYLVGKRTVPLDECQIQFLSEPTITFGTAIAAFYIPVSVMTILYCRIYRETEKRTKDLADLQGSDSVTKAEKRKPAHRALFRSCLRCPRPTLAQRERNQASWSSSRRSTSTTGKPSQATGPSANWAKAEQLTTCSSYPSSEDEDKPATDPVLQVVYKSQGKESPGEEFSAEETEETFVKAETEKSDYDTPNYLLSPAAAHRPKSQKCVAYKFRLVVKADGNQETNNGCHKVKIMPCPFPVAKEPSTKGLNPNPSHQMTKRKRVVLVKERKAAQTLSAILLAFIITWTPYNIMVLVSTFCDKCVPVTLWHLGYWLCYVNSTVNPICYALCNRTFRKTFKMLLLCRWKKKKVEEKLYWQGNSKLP

Molecules are shown by their SMILES. Several values for one entry are separate records, joined by “and”; a condition that tells them apart may be missing. Equal entries are not always repeated.

Chain of Gamma-aminobutyric acid receptor subunit alpha-1 (P62813 whole entry): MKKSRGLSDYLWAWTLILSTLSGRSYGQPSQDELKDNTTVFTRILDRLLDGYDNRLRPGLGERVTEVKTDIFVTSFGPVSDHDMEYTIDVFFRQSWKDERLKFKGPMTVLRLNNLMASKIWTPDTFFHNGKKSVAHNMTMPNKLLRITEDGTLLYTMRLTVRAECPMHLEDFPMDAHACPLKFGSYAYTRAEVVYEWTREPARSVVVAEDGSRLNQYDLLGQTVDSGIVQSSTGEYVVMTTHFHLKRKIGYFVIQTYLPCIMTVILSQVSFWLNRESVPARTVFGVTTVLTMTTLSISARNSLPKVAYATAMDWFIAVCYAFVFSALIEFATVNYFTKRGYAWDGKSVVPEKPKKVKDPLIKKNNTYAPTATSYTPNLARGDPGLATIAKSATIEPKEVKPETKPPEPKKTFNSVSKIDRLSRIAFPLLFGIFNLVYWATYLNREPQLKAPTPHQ
Chain of D(1A) dopamine receptor (P21728 whole entry): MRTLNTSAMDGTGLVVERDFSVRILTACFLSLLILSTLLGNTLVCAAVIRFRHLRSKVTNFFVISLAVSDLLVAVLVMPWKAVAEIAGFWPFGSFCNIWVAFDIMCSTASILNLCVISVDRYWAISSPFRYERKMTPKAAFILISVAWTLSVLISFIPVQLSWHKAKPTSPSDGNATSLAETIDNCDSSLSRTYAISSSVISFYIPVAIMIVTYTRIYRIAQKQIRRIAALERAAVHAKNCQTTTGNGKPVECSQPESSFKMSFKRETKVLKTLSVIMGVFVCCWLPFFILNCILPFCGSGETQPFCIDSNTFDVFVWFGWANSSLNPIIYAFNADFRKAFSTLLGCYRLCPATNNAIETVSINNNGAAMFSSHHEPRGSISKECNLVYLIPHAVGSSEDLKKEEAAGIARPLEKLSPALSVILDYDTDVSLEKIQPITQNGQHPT
Chain of Mu-type opioid receptor (P35372 whole entry): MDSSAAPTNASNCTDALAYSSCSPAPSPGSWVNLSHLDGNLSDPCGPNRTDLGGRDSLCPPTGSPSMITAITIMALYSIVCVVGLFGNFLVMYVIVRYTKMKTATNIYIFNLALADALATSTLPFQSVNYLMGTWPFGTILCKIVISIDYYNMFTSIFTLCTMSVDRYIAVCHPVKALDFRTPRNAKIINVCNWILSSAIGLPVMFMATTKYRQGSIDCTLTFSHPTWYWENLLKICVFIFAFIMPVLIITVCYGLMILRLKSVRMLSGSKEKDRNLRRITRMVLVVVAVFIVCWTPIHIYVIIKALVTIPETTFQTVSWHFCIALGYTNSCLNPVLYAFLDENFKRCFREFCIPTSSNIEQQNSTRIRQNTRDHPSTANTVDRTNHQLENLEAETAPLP
Chain of D(2) dopamine receptor (P14416 whole entry): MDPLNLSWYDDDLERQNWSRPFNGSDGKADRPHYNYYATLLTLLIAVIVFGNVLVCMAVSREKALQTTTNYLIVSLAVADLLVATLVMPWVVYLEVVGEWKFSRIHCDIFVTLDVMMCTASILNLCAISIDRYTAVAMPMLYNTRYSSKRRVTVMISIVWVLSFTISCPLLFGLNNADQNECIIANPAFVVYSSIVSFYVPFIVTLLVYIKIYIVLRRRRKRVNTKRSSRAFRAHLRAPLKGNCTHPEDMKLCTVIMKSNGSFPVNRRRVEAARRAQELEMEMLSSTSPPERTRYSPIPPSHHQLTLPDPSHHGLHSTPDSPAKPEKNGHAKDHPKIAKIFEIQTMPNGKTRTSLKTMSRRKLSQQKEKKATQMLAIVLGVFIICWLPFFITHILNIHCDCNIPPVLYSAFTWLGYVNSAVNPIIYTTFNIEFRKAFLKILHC
Chain of 5-hydroxytryptamine receptor 5A (P47898 whole entry): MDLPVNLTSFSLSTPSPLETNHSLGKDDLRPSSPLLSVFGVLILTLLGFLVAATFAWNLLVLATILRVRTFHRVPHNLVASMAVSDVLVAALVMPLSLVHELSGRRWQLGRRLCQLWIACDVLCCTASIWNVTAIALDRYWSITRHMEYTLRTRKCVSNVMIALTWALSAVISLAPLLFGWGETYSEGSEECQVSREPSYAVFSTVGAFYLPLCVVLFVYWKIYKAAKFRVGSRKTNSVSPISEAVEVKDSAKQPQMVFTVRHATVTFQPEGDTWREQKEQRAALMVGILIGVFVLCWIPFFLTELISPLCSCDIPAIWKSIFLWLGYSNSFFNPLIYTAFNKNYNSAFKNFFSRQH
Chain of Muscarinic acetylcholine receptor M3 (P20309 whole entry): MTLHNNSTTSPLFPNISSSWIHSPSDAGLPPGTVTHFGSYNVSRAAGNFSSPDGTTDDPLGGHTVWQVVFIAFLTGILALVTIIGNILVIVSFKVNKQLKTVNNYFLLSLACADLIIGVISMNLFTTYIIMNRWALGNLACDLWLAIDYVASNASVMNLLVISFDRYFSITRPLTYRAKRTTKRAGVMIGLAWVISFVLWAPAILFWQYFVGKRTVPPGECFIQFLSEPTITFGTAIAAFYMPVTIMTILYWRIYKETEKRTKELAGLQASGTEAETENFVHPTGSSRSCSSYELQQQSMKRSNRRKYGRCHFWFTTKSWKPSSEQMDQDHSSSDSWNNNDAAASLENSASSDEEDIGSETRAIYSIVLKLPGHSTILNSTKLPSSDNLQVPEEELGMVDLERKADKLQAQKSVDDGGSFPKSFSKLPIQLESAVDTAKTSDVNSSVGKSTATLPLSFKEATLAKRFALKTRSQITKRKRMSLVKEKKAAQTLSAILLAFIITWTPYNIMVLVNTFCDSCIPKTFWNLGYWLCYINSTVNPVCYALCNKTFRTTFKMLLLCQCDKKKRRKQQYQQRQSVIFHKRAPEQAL

Take `N[C@@H](CCS(=O)(=O)O)C(=O)O` (racemic): the Ki (on Mu-type opioid receptor; in assay [1]; in [2]; at D(2) dopamine receptor; at D(1A) dopamine receptor; in assay [3]) was > 10 µM in each case. Besides, the Ki in assay [4], in assay [5], in assay [6], in assay [7] and in assay [8] was > 10 µM each time.
Regarding `N[C@@H](CCS)C(=O)O` (racemic) [CAS_778], the Ki (at Mu-type opioid receptor; in assay [1]; in [2]; at D(2) dopamine receptor; at D(1A) dopamine receptor; in assay [3]) was > 10 µM throughout. The Ki in assay [4], in assay [5], in assay [6], in assay [7] and in assay [8] was > 10 µM each time.
Take `NC(CS(=O)O)C(=O)O` (configuration not stated) [CAS_109]: the Ki (on Mu-type opioid receptor; in assay [1]; in assay [2]; at D(2) dopamine receptor; on D(1A) dopamine receptor; in assay [3]) was > 10 µM in each case. Also, the Ki in assay [4], in assay [5], in assay [6], in [7] and in [8] was > 10 µM throughout.
Turning to `NC(CSSCC(N)C(=O)O)C(=O)O` (configuration not stated) [CAS_595], the Ki (on Mu-type opioid receptor; in assay [1]; in assay [2]; on D(2) dopamine receptor; on D(1A) dopamine receptor; in assay [3]) was > 10 µM throughout. For the same molecule, the Ki (in general, a dissociation constant, usually derived from enzyme kinetics or from competition with a known ligand) was > 10 µM in assay [4]; > 10 µM in assay [5]; > 10 µM in assay [6]; > 10 µM and 3.24 µM in assay [7]; > 10 µM in [8].
Take `N[C@@H](CS)C(=O)O` [CAS_5862]: the Ki (at Mu-type opioid receptor; in assay [1]; in [2]; at D(2) dopamine receptor; at D(1A) dopamine receptor; in assay [3]) was > 10 µM in each case. The Ki in assay [4], in [5], in assay [6], in [7] and in assay [8] was > 10 µM throughout.
As to `CSCC[C@@H](N)C(=O)O` [CAS_6137], the inhibition constant Ki (at Mu-type opioid receptor; in [1]; in assay [2]; at D(2) dopamine receptor; at D(1A) dopamine receptor; in [3]) was > 10 µM in each case. For the same molecule, the inhibition constant (Ki) in assay [4], in [5], in assay [6], in assay [7] and in [8] was > 10 µM throughout.
Take `N[C@H](CCS(=O)(=O)O)C(=O)O` [D-homocysteic acid]: the Ki (at Mu-type opioid receptor; in [1]; in assay [2]; on D(2) dopamine receptor; at D(1A) dopamine receptor; in assay [3]) was > 10 µM each time. Moreover, the Ki in assay [4], in assay [5], in [6], in assay [7] and in assay [8] was > 10 µM in each case.
With `N[C@H](CCS(=O)O)C(=O)O` [D-homocysteine sulfinic acid], the Ki (on Mu-type opioid receptor; in [1]; in [2]; on D(2) dopamine receptor; on D(1A) dopamine receptor; in [3]) was > 10 µM each time. Also, the Ki in assay [4], in assay [5], in assay [6], in [7] and in assay [8] was > 10 µM each time.
Regarding `N[C@@H]1CCSC1=O` [D-homocysteine thiolactone], the Ki (on Mu-type opioid receptor; in assay [1]; in assay [2]; on D(2) dopamine receptor; on D(1A) dopamine receptor; in [3]) was > 10 µM throughout. For the same molecule, the Ki in assay [4], in [5], in assay [6], in assay [7] and in assay [8] was > 10 µM in each case.
In the case of `N[C@H](CS(=O)(=O)O)C(=O)O` [L-cysteic acid], the Ki (at Mu-type opioid receptor; in assay [1]; in assay [2]; on D(2) dopamine receptor; at D(1A) dopamine receptor; in assay [3]) was > 10 µM throughout. Besides, the Ki in assay [4], in [5], in assay [6], in [7] and in assay [8] was > 10 µM each time.
On to `N[C@@H](CCS(=O)O)C(=O)O` [L-homocysteine sulfinic acid], for which the Ki (on Mu-type opioid receptor; in [1]; in assay [2]; at D(2) dopamine receptor; on D(1A) dopamine receptor; in assay [3]) was > 10 µM in each case. The Ki in assay [4], in assay [5], in assay [6], in assay [7] and in assay [8] was > 10 µM each time.
On to `N[C@H]1CCSC1=O` [NSC_134505], for which the inhibitory constant (Ki) (on Mu-type opioid receptor; in [1]; in assay [2]; at D(2) dopamine receptor; at D(1A) dopamine receptor; in [3]) was > 10 µM in each case. The Ki in assay [4], in [5], in [6], in assay [7] and in assay [8] was > 10 µM throughout.

The record behind these values is BindingDB's records for doi:10.1124/jpet.102.047092 (Case Western Reserve University, 2003).
